The subject of experiment [1] is T1, cb1a cell KARs (kainate receptors of cb1a Off bipolar cells).
T1 construct: gene GRIK1
Conditions: desensitization by glutamate; supplement only.

Experiment [2] relates to T2, cone glutamate transporter (TBOA-sensitive; EAAT5 immunolabelled at cone terminal).
T2 construct: gene SLC1A7
The conditions noted are these: read-out: steady state EC50.

Experiment [3] deals with T1, cb1a cell KARs (kainate receptors of cb1a Off bipolar cells). The conditions noted are these: mean of n = 6 somas (Hill n 1.11); 35 µM GYKI 53655 blocks AMPA receptors; pH 7.4; 32-33 °C.

Turning to `N[C@@H](CCC(=O)O)C(=O)O` [glutamate], in experiment [1], the concentration for half-maximal inhibition (IC50) is 30.4 ± 10.2 µM. Further, the results for the EC50 in experiment [2] and in experiment [3] were 0.71 µM and 1400 ± 160 µM, respectively.

As usually defined, the IC50 is the concentration needed to halve the response being measured. What is called EC50 is the concentration giving half of the maximal effect.

Values taken from PMC10276006, “Mechanisms of simultaneous linear and nonlinear computations at the mammalian cone photoreceptor synapse” (Nature Communications, 2023).
